Experimental data: patent US20140243335A1, “SUBSTITUTED HYDOXAMIC ACIDS AND USES THEREOF” (Millennium Pharmaceuticals, Inc., priority 2010, published 2014)

Molecular target: T1, purified human HDAC6 (Homo sapiens, UniProt Q9UBN7)
T1 construct: purchased BPS Bioscience 5006
T1 sequence (Q9UBN7 1-1215): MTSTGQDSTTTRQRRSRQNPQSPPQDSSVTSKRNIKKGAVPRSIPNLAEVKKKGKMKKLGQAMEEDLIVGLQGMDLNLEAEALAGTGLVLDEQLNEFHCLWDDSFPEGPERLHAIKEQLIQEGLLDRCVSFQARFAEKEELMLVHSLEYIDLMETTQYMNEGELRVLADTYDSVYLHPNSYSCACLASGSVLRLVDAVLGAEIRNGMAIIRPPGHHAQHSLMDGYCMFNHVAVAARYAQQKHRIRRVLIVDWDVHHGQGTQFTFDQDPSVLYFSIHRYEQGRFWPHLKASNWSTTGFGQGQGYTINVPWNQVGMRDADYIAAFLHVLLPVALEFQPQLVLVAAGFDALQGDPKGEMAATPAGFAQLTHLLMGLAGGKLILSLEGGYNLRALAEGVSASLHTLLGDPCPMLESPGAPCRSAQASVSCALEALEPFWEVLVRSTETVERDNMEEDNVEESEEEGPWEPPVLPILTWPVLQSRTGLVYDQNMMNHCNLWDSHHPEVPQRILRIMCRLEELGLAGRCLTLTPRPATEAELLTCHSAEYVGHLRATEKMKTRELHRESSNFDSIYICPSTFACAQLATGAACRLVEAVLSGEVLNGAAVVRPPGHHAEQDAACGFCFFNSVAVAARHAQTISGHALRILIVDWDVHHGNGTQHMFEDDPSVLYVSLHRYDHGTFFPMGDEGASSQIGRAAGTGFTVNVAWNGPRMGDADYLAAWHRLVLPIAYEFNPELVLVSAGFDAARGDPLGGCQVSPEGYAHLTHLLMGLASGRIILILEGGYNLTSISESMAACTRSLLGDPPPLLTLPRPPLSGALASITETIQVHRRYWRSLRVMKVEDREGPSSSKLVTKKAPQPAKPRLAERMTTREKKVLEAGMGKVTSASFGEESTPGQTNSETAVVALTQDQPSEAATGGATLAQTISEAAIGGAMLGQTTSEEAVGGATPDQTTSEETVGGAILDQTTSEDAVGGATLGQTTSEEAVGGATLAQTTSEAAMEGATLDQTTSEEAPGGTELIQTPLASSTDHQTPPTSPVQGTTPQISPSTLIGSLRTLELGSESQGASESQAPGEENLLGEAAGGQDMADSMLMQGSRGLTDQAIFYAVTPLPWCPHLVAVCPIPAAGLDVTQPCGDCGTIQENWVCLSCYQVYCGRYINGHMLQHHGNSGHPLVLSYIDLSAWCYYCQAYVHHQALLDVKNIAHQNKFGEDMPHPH
Assay: HDAC6 Enzyme Assay
Assay type: biochemical
Conditions: HDAC6 inhibition at a compound concentration of 0.412 μM; read-out: Percent Inhibition at 0.412 μM
Description: To measure the inhibition of HDAC6 activity, purified human HDAC6 (BPS Bioscience; Cat. No. 5006) is incubated with substrate Ac-Arg-Gly-Lys(Ac)-AMC peptide (Bachem Biosciences; Cat. No. I-1925) for 1 hour at 30° C. in the presence of test compounds or vehicle DMSO control. The reaction is stopped with the HDAC inhibitor trichostatin A (Sigma; Cat. No. T8552) and the amount of Arg-Gly-Lys-AMC generated is quantitated by digestion with trypsin (Sigma; Cat. No. T1426) and subsequent measurement of the amount of AMC released using a fluorescent plate reader (Pherastar; BMG Technologies) set at Ex 340 nm and Em 460 nm. Concentration response curves are generated by calculating the fluorescence increase in test compound-treated samples relative to DMSO-treated controls, and enzyme inhibition (IC50) values are determined from those curves.

| SMILES | inhibition at 0.412 µM |
| --- | --- |
| COc1ccc(C(=O)NC2CCc3cc(C(=O)NO)ccc3C2)cc1 (centres unmarked) [Compound I-61, N-hydroxy-6-[(4-methoxybenzoyl)amino]-5,6,7,8-tetrahydronaphthalene-2-carboxamide] | 84% |
| COc1ccc(C(=O)N2C3CCC2c2cc(C(=O)NO)ccc23)cc1 (centres unmarked) [Compound I-198, N-hydroxy-9-(4-methoxybenzoyl)-1,2,3,4-tetrahydro-1,4-epiminonaphthalene-6-carboxamide] | 60% |
| Cc1ccc(-c2cc(C(=O)NC3CCCc4cc(C(=O)NO)ccc43)[nH]n2)cc1 (centres unmarked) [Compound I-35, N-{6-[(hydroxyamino)carbonyl]-1,2,3,4-tetrahydronaphthalen-1-yl}-3-(4-methylphenyl)-1H-pyrazole-5-carboxamide] | 74% |
| CC(C)(C)C(=O)NC1CCc2cc(C(=O)NO)ccc2C1 (centres unmarked) [Compound I-111, 6-[(2,2-dimethylpropanoyl)amino]-N-hydroxy-5,6,7,8-tetrahydronaphthalene-2-carboxamide] | 75% |
| O=C(NO)c1ccc2c(c1)CCC(c1cccc(C(F)(F)F)c1)C2 (centres unmarked) [Compound I-113, N-hydroxy-6-[3-(trifluoromethyl)phenyl]-5,6,7,8-tetrahydronaphthalene-2-carboxamide] | 53% |
| O=C(NO)c1ccc2c(c1)C1CCC2N1C(=O)C12CC3CC(CC(C3)C1)C2 (centres unmarked) [Compound I-205, 9-(1-adamantylcarbonyl)-N-hydroxy-1,2,3,4-tetrahydro-1,4-epiminonaphthalene-6-carboxamide] | 17% |
| CC(C)(C)C(=O)Nc1cc(OC2CCc3cc(C(=O)NO)ccc3C2)ccn1 (centres unmarked) [Compound I-150, 6-({2-[(2,2-dimethylpropanoyl)amino]pyridin-4-yl}oxy)-N-hydroxy-5,6,7,8-tetrahydronaphthalene-2-carboxamide] | 86% |
| CN(C)C1CCc2ccc(C(=O)NO)cc2C1 (centres unmarked) [Compound I-80, 7-(dimethylamino)-N-hydroxy-5,6,7,8-tetrahydronaphthalene-2-carboxamide] | 43% |
| O=C(NO)c1ccc2c(c1)CCCC2NC(=O)c1ccc(C(F)(F)F)cc1 (centres unmarked) [Compound I-20, N-hydroxy-5-{[4-(trifluoromethyl)benzoyl]amino}-5,6,7,8-tetrahydronaphthalene-2-carboxamide] | 30% |
| COc1cccc(C2CCc3cc(C(=O)NO)ccc3C2)c1 (centres unmarked) [Compound I-110, N-hydroxy-6-(3-methoxyphenyl)-5,6,7,8-tetrahydronaphthalene-2-carboxamide] | 42% |
| CC1(C(=O)N2C3CCC2c2cc(C(=O)NO)ccc23)CCCCC1 (centres unmarked) [Compound I-196, N-hydroxy-9-[(1-methylcyclohexyl)carbonyl]-1,2,3,4-tetrahydro-1,4-epiminonaphthalene-6-carboxamide] | 32% |
| O=C(NO)c1ccc2c(c1)CCCC2NC(=O)c1cnc2ccccc2n1 (centres unmarked) [Compound I-9, N-{6-[(hydroxyamino)carbonyl]-1,2,3,4-tetrahydronaphthalen-1-yl}quinoxaline-2-carboxamide] | 47% |
| CN(C)Cc1cc(C(=O)NC2CCc3ccc(C(=O)NO)cc3C2)cc(C(F)(F)F)c1 (centres unmarked) [Compound I-78, 7-{[3-[(dimethylamino)methyl]-5-(trifluoromethyl)benzoyl]amino}-N-hydroxy-5,6,7,8-tetrahydronaphthalene-2-carboxamide] | 88% |
| O=C(NO)c1ccc2c(c1)CCCC2NC(=O)c1cc2cc(Cl)ccc2o1 (centres unmarked) [Compound I-40, 5-chloro-N-{6-[(hydroxyamino)carbonyl]-1,2,3,4-tetrahydronaphthalen-1-yl}-1-benzofuran-2-carboxamide] | 48% |
| O=C(NO)c1ccc2c(c1)CCC(Oc1ccnc(C(=O)NC3CCNCC3)c1)C2 (centres unmarked) [Compound I-220, 4-({6-[(hydroxyamino)carbonyl]-1,2,3,4-tetrahydronaphthalen-2-yl}oxy)-N-piperidin-4-ylpyridine-2-carboxamide] | 92% |
| O=C(NO)c1ccc2c(c1)CC(c1ccc(N3CCNCC3)nc1)CC2 (centres unmarked) [Compound I-190, N-hydroxy-7-(6-piperazin-1-ylpyridin-3-yl)-5,6,7,8-tetrahydronaphthalene-2-carboxamide] | 90% |
| O=C(NO)c1ccc2c(c1)CCC(c1ccccc1C(F)(F)F)C2 (centres unmarked) [Compound I-109, N-hydroxy-6-[2-(trifluoromethyl)phenyl]-5,6,7,8-tetrahydronaphthalene-2-carboxamide] | 53% |
| O=C(NO)c1ccc2c(c1)CCC(NC(=O)C13CC4CC(CC(C4)C1)C3)C2 (centres unmarked) [Compound I-57, N-{6-[(hydroxyamino)carbonyl]-1,2,3,4-tetrahydronaphthalen-2-yl}adamantane-1-carboxamide] | 59% |
| O=C(NO)c1ccc2c(c1)CC(Nc1ccc(Cl)cc1)CC2 (centres unmarked) [Compound I-83, 7-[(4-chlorophenyl)amino]-N-hydroxy-5,6,7,8-tetrahydronaphthalene-2-carboxamide] | 86% |
| O=C(NO)c1ccc2c(c1)CC(CCc1ccccc1)CC2 (centres unmarked) [Compound I-93, N-hydroxy-7-(2-phenylethyl)-5,6,7,8-tetrahydronaphthalene-2-carboxamide] | 74% |
| O=C(NO)c1ccc2c(c1)CCC(OCc1ccc(Cl)cc1)C2 (centres unmarked) [Compound I-125, 6-[(4-chlorobenzyl)oxy]-N-hydroxy-5,6,7,8-tetrahydronaphthalene-2-carboxamide] | 87% |
| CC1(C)CCC(C)(C)c2cc(C(=O)NO)ccc21 [Compound I-74, N-hydroxy-5,5,8,8-tetramethyl-5,6,7,8-tetrahydronaphthalene-2-carboxamide] | 20% |
| O=C(NO)c1ccc2c(c1)C1CCC2N1C(=O)c1cc2ccccc2s1 (centres unmarked) [Compound I-204, 9-(1-benzothien-2-ylcarbonyl)-N-hydroxy-1,2,3,4-tetrahydro-1,4-epiminonaphthalene-6-carboxamide] | 23% |
| COc1ccc2c(CC(=O)NC3CCCc4cc(C(=O)NO)ccc43)coc2c1 (centres unmarked) [Compound I-36, N-hydroxy-5-{[(6-methoxy-1-benzofuran-3-yl)acetyl]amino}-5,6,7,8-tetrahydronaphthalene-2-carboxamide] | 26% |
| Cc1c(C(=O)NC2CCc3cc(C(=O)NO)ccc3C2)cc(-c2ccccc2)n1CCCN1CCOCC1 (centres unmarked) [Compound I-47, N-{6-[(hydroxyamino)carbonyl]-1,2,3,4-tetrahydronaphthalen-2-yl}-2-methyl-1-(3-morpholin-4-ylpropyl)-5-phenyl-1H-pyrrole-3-carboxamide] | 82% |
| O=C(NO)c1ccc2c(c1)CC(Nc1cccc(Cl)c1)CC2 (centres unmarked) [Compound I-82, 7-[(3-chlorophenyl)amino]-N-hydroxy-5,6,7,8-tetrahydronaphthalene-2-carboxamide] | 85% |
| O=C(NO)c1ccc2c(c1)CCC(NC(=O)C1CCCCC1)C2 (centres unmarked) [Compound I-49, 6-[(cyclohexylcarbonyl)amino]-N-hydroxy-5,6,7,8-tetrahydronaphthalene-2-carboxamide] | 56% |
| CC(C)N1CCC(C)(C(=O)Nc2cc(OC3CCc4cc(C(=O)NO)ccc4C3)ccn2)CC1 (centres unmarked) [Compound I-219, N-[4-({6-[(hydroxyamino)carbonyl]-1,2,3,4-tetrahydronaphthalen-2-yl}oxy)pyridin-2-yl]-1-isopropyl-4-methylpiperidine-4-carboxamide] | 90% |
| CC(=O)Nc1cccc(C2CCc3ccc(C(=O)NO)cc3C2)c1 (centres unmarked) [Compound I-92, 7-[3-(acetylamino)phenyl]-N-hydroxy-5,6,7,8-tetrahydronaphthalene-2-carboxamide] | 92% |
